According to article PMC11173422, “Substitution-Induced Mechanistic Switching in SNAr-Warheads for Cysteine Proteases” (Molecules, 2024):
Where two headings read alike, the source gives them in different places. Values belong to the compound of their own block, whether it stands above or below them.

How the values were obtained:
[1] = Parallel artificial membrane permeability assay (PAMPA); settings: pH 7.4
Protocol: An artificial membrane consisting of phosphatidylcholine dissolved in n-dodecane was employed to control equilibration between two connected aqueous compartments, of which one contained the compound of interest. This model for compound permeation through a cell membrane was incubated, and the resulting concentration in the acceptor compartment was quantified spectroscopically.
A general literature-known principle was used [11]. Propranolol hydrochloride was sourced from Changzou Yabang Pharmaceutical (Fagron GmbH & Co. KG). Candesartan cilexetil was sourced as a chemical reference standard from the EDQM (catalogue code Y0001388).
Incubation setup consisted of donor (top) plate (Sigma Aldrich, MAIPNTR10), 5 µL artificial membrane
(1 % (w/v) L-α-phosphatidyl choline, Sigma Aldrich P3556, in n-dodecane, Sigma Aldrich 8205430100),
transparent measurement plate (Greiner UV-Star®, 655801), Tecan Spark 10M® well plate reader, 200 µL

[2] = cited from earlier work
Trypanosoma brucei = tested on: Trypanosoma brucei; set-up: method as in PMID 32210166; settings: cell cultures, free acid; cited from earlier work
rhodesain = rhodesain (Trypanosoma brucei rhodesiense, UniProt Q95PM0); set-up: stably transformed with the rhodesain ΔC gene cloned into the pPICZαA vector; made in house; host or cells: Pichia pastoris X-33 (pPICZαA, secreted into the culture supernatant); method as in PMID 32210166, PMID 34378914; settings: cited from earlier work
rhodesain, sequence (Q95PM0 entry or part of it): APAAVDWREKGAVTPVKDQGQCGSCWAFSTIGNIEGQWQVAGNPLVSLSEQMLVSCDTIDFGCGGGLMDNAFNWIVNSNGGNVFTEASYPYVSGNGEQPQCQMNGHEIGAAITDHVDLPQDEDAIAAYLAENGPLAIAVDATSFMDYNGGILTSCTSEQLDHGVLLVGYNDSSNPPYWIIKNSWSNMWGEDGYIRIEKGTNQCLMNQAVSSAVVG

Rhodesain (TbCatL) = target: T1, Rhodesain (TbCatL) (Trypanosoma brucei rhodesiense, UniProt Q95PM0); settings: lead compound, published data ref 17; cited from earlier work
T1 construct: stably transformed with the rhodesain ΔC gene cloned into the pPICZαA vector; made in house; host or cells: Pichia pastoris X-33 (pPICZαA, secreted into the culture supernatant)
T1 sequence (Q95PM0 entry or part of it): as above

[3] = Aqueous solubility observed in PAMPA set-up; format: physicochemical; settings: buffered aqueous solution pH 7.4, 5% DMSO
Protocol: acceptor (bottom) plate (Greiner, 655074). Measurement setup for direct spectroscopy consisted of UV- […]
sample volume, λ = 200–650 nm. […]
elution (0.7 mL/min). Injection volume was 100 µL. Areas of peaks in the chromatogram (detection-λ = 210 nm) were used to calculate the AUCs. Retention time and mass spectrum recorded in positive ionization mode were used to assign species. Analysis was performed using MestreNova. […]
donor plate. This was sealed (Greiner, 676070, Viewseal sealer). 400 µL of acceptor solution was applied to the acceptor plate. Incubation setup was assembled and left for 7 h. After this time, acceptor and reference solutions were analyzed.
The acceptor solutions of those were measured
P௔௣௣ = −(௏ವ ା௏ಲ )∗஺∗௧ eq. 6

Papp at 7 h, 100 µM [1]: 9.9 ± 1 ×10⁻⁶ cm/s
SMILES: CC(C)NCC(O)COc1cccc2ccccc12 (stereo not drawn) [Propranolol, reference compound]
Lit. Papp ([2]; literature value ref 35, 36): 8–14 [35, 36] ×10^−6 cm/s

SMILES: CC(C)C[C@H](NC(=O)[C@H](Cc1ccccc1)Nc1cc([N+](=O)[O-])c([N+](=O)[O-])cc1F)C(=O)O [Compound I]
EC50 (Trypanosoma brucei): 20 µM
Adduct with rhodesain in MALDI-TOF-MS (rhodesain): no adduct could be detected
Ki (Rhodesain (TbCatL)): 0.004 ± 0.0013 µM

Papp at 7 h, 100 µM [1]: 1.3 ± 0.2 ×10⁻⁶ cm/s
SMILES: CCOc1nc2cccc(C(=O)OC(C)OC(=O)OC3CCCCC3)c2n1Cc1ccc(-c2ccccc2-c2nnn[nH]2)cc1 (stereo not drawn) [Candesartan cilexetil, reference compound]
Lit. Papp ([2]; literature value ref 37): 0.6 [37] ×10^−6 cm/s

SMILES: CC(C)C[C@H](NC(=O)[C@H](Cc1ccccc1)Nc1cc(F)c([N+](=O)[O-])cc1[N+](=O)[O-])C(=O)OC(C)(C)C [Compound 21]
Papp at 7 h, 100 µM [1]: 3.4 ± 1.8 ×10⁻⁶ cm/s
aqueous solubility [3]: poor aqueous solubility
